Measurements from patent US20260144770A1, “COMPOSITION FOR INHIBITING SEBUM SECRETION CONTAINING A THYMOL ESTER-BASED COMPOUND” (AMOREPACIFIC CORPORATION, priority 2024, published 2026).

Test system: Human sebocytes
Experiment: Test of sebum secretion-inhibiting effect using human sebocytes (linoleic acid-induced, Bodipy lipid staining)
Type: cell-based
Experimental: Human sebocytes were cultured for 24 hours in an environment of 37° C. and 5% CO2 with Sebocyte Complete Culture Media (Celprogen), and then treated with 100 μM linoleic acid and 0.1, 0.5, 1, and 2 ppm Melasolv and cultured for another 48 hours.
Thereafter, the cells were fixed with formaldehyde, and lipids were stained with 2 μM Bodipy. Fluorescence intensity was measured at a specific wavelength (Excitation/Emission: 485/528 nm) using a Fluorescent Plate Reader.

SMILES	sebum production, percentage compared to the untreated control group (100%) (100 μM linoleic acid alone (inducer), 48 hours, Bodipy fluorescence)	amount of sebum production (concentration dependence) (0.1, 0.5, 1, and 2 ppm Melasolv together with 100 μM linoleic acid, 48 hours (FIG. 1))	sebum production seen in fluorescence photograph (FIG. 2) (2 ppm Melasolv, naked-eye observation of Bodipy fluorescence photograph)	inhibition at 2 ppm (Homo sapiens, 2 ppm Melasolv with 100 μM linoleic acid, 48 hours, based on the amount of sebum production induced by linoleic acid, Bodipy fluorescence (FIG. 1))
CCCCC/C=C\C/C=C\CCCCCCCC(=O)O [linoleic acid, reference compound]	142%	–	–	–
COc1cc(/C=C/C(=O)Oc2cc(C)ccc2C(C)C)cc(OC)c1OC [Melasolv, (5-methyl-2-propan-2-ylphenyl) (E)-3-(3,4,5-trimethoxyphenyl)prop-2-enoate]	–	decreased in proportion to the concentration	most inhibited	~60.3%
